The test system of assay [1] is DT-R cells (pRRE3-luc-transfected v-ki-ras-transformed NIH3T3 cells); signal derived from Ras oncogene products. Briefly: Inhibitory effect against cellular signaling derived from Ras oncogene products: luciferase reporter, dissociation of DT-R from DT-C activity (MAC). In kind it is cell-based, mouse. The settings on record: minimal tested concentration at which luciferase activities of DT-C cells and DT-R cells dissociated. The source says: Test Example 1 Inhibitory Effect Against Cellular Signaling Derived From Ras Oncogene Products
1) Establishment of Cell Lines Used in Assay
Based on the reporter plasmid (pGV-P (Toyo Ink, Japan)), in which luciferase gene was ligated to SV40-derived minimal promoter, we constructed a plasmid designated pRRE3-luc by inserting 3 copies of chemically synthesized oligonucleotides (Sequence: CAGGATATGACTCT, derived from mouse NVL-3 (M. A. Reddy et al.(1992)Mol. Endocrinol., 6, 1051)) into upstream of the promoter. v-ki-ras-transformed NIH3T3 cells (DT cells, provided by Dr. Makoto Noda (Kyoto Univ., School of medicine)) were transfected with this plasmid by liposome-mediated transfection and transfected cell lines stably incorporated and maintained each plasmid were obtained. We named pGV-P and pRRE3-transfected cell line as DT-C and DT-R, respectively and used in the assay described below.
2) Preparation of Samples
i) All the cell lines were cultured in Dulbecco's Modified Essential Medium (DMEM: 10% Fetal Calf Serum(FCS: Hyclone, USA)) including […] kanamycin (Meiji Seika, Japan) in humidified incubator under condition of 5% CO2 at 37° C.
ii) DT-C and DT-R cells were seeded at 2500 cells/well into flat-bottom 96 well multiplate (Sumitomo bakelite) and incubated for 24 hours.
iii) Test compounds were prepared as 1 mg/ml DMSO solution.
iv) The solution of test compounds were added to the culture. Tested compounds are used at the concentration from […] to 0.51 ng/ml with by 3-fold dilution.
v) After 24 hours, the culture supernatant was completely aspirated and […] of cell-lysing solution (PGC-50 (Toyo Ink, Japan)) was added before cells were dried up. In order to the cells were lysed completely, multiwell plates were left at room temperature for 10 to 30 min. The plates were wrapped up and stored at −20° C. till the day of measurement.
3) Measurement of Samples
i) Melt the samples by putting 96 well multiplate at 37° C. and add 90 μl/well 25 mM Tris (pH 7.5).
ii) Transfer 50 μl of the sample (110 μl) to the 96 well microplate for measurement (Microlite 1 (Dynatech)).
iii) Measure the samples by the luminometer, LUMINOUS CT9000D (Dia-Yatron, Japan). We used Pickagene luminescence kit PGL2000 or LT2.0 (Toyo Ink, Japan) as substrates for luminescence measurement (50 μl/well).
4) Judgment of the Results
i) The luciferase activity of DT-C cells and DT-R cells were plotted in the graph where the relative activity and the compound concentration were expressed as Y-axis and X-axis, respectively. We judged by the degree of dissociation between the activities of DT-C cells and DT-R cells as an index.
ii) Concretely, efficacy of the compound was expressed by two values described below.
a) Among the points of concentration tested, the minimal concentration (Minimal Active Concentration: MAC), at which the activities of DT-C cells and DT-R cells dissociated, was shown as an index of efficacy of the compound.
A general note: A reporter such as luciferase makes a cellular process visible.

The test system of assay [2] is human colon cancer HT29. Briefly: In vitro cell growth inhibition test, MTT assay. The settings on record: MTT assay 4 days after compound addition. The format is cell-based. The source says:
(§1) Test Example 2 In Vitro Cell Growth Inhibition Test Cells and MTT Assay
(§2) Human squamous lung cancer […], human squamous lung cancer Ma44, human lung adenocarcinoma A549, human colon cancer HT29 and human pancreas cancer PANC-1 were used.
For orientation: Formazan colour is commonly taken as a measure of viable cells.

Assay [3] has as its system human lung adenocarcinoma A549. Kind of assay: In vitro cell growth inhibition test, MTT assay. The settings on record: MTT assay 4 days after compound addition. The format is cell-based.
From the text: as §1, §2

Assay [4] relates to human pancreas cancer PANC-1. Kind of assay: In vitro cell growth inhibition test, MTT assay. The conditions noted are these: MTT assay 4 days after compound addition. In kind it is cell-based.
From the text: as §1, §2

For assay [5], the system named is human squamous lung cancer Ma44. Briefly: In vitro cell growth inhibition test, MTT assay. The conditions noted are these: MTT assay 4 days after compound addition. In kind it is cell-based.
From the text: as §1, §2

Assay [6] relates to human squamous lung cancer RERF-RC-AI. Briefly: In vitro cell growth inhibition test, MTT assay. The conditions noted are these: MTT assay 4 days after compound addition. In kind it is cell-based.
From the text: as §1, §2

The structures appear in SMILES notation. Converted amounts (≈) assume the structure as drawn. Bounds are passed on as bounds.

With `CCCNC(=Nc1nc(CC)ncc1CSc1nnc(-c2ccc(N)cc2)o1)NCCC` [Compound A-139], in assay [1], the “MAC (Minimal Active Concentration)” value was under 0.000508 µg/mL. Also, in assay [2], the “IC50, HT29” value was 0.008 µg/mL (≈ 0.0176 µM). Also, in assay [3], the “IC50, A549” value came out at 0.013 µg/mL (≈ 0.0286 µM). In assay [4], the “IC50, PANC-1” value was 0.007 µg/mL (≈ 0.0154 µM). Also, in assay [5], the “IC50, Ma44” value amounted to 0.014 µg/mL (≈ 0.0308 µM). For the same compound, the “IC50, RERF-LC-AI” value in assay [6] amounted to 0.013 µg/mL (≈ 0.0286 µM).

For the compound `CCNC(=Nc1nc(C)ncc1CSc1nnc(-c2ccc(N)cc2OC)o1)NCC` [Compound A-141], the “MAC (Minimal Active Concentration)” value in assay [1] came out at 0.0412 µg/mL. The “IC50, HT29” value in assay [2] amounted to 0.032 µg/mL (≈ 0.0723 µM). In addition, in assay [3], the “IC50, A549” value came out at 0.051 µg/mL (≈ 0.115 µM). Also, the “IC50, PANC-1” value in assay [4] is 0.021 µg/mL (≈ 0.0475 µM). Besides, the “IC50, Ma44” value in assay [5] was determined as 0.085 µg/mL (≈ 0.192 µM). Further, in assay [6], the “IC50, RERF-LC-AI” value turned out to be 0.016 µg/mL (≈ 0.0362 µM).

Regarding `CCCNC(=Nc1nc(C)ncc1CSc1nnc(-c2ccc(N)cc2)o1)NC` [Compound A-148], the “MAC (Minimal Active Concentration)” value in assay [1] turned out to be 0.123 µg/mL. In addition, the “IC50, HT29” value in assay [2] was determined as 0.016 µg/mL (≈ 0.0388 µM). In addition, in assay [3], the “IC50, A549” value amounted to 0.49 µg/mL (≈ 1.19 µM). Moreover, the “IC50, PANC-1” value in assay [4] came out at 0.015 µg/mL (≈ 0.0364 µM). In assay [5], the “IC50, Ma44” value is 0.086 µg/mL (≈ 0.208 µM). Moreover, the “IC50, RERF-LC-AI” value in assay [6] was found to be 0.011 µg/mL (≈ 0.0267 µM).

On to `CCCNC(=Nc1nc(CC)ncc1CSc1nnc(-c2ccc([N+](=O)[O-])cc2)o1)NC` [Compound A-150], for which, in assay [1], the “MAC (Minimal Active Concentration)” value was found to be 0.123 µg/mL. The “IC50, HT29” value in assay [2] is 0.031 µg/mL (≈ 0.0679 µM). In addition, the “IC50, A549” value in assay [3] is 0.005 µg/mL (≈ 0.011 µM). Also, in assay [4], the “IC50, PANC-1” value turned out to be 0.037 µg/mL (≈ 0.081 µM). In assay [5], the “IC50, Ma44” value turned out to be 0.14 µg/mL (≈ 0.307 µM). Moreover, the “IC50, RERF-LC-AI” value in assay [6] worked out at 0.016 µg/mL (≈ 0.035 µM).

`CCCNC(=Nc1nc(CC)ncc1CSc1nnc(-c2ccc(N)cc2)o1)NC` [Compound A-151]: in assay [1], the “MAC (Minimal Active Concentration)” value was found to be 0.37 µg/mL. The “IC50, HT29” value in assay [2] was found to be 0.02 µg/mL (≈ 0.0469 µM). In addition, the “IC50, A549” value in assay [3] is 0.07 µg/mL (≈ 0.164 µM). Moreover, in assay [4], the “IC50, PANC-1” value is 0.024 µg/mL (≈ 0.0563 µM). In assay [5], the “IC50, Ma44” value came to 0.16 µg/mL (≈ 0.375 µM). The “IC50, RERF-LC-AI” value in assay [6] was 0.013 µg/mL (≈ 0.0305 µM).

For `Cc1ncc(CSc2nnc(-c3ccc([N+](=O)[O-])cc3)o2)c(N=C(NC(C)C)NC(C)C)n1` [Compound A-165], the “MAC (Minimal Active Concentration)” value in assay [1] was 0.123 µg/mL. Besides, the “IC50, HT29” value in assay [2] worked out at 0.052 µg/mL (≈ 0.111 µM). The “IC50, A549” value in assay [3] was found to be 0.095 µg/mL (≈ 0.202 µM). Moreover, the “IC50, PANC-1” value in assay [4] was 0.05 µg/mL (≈ 0.106 µM). In assay [5], the “IC50, Ma44” value was 0.055 µg/mL (≈ 0.117 µM). Moreover, in assay [6], the “IC50, RERF-LC-AI” value stood at 0.025 µg/mL (≈ 0.0531 µM).

Regarding `Cc1ncc(CSc2nnc(-c3ccc(N)cc3)o2)c(N=C(NC(C)C)NC(C)C)n1` [Compound A-166], the “MAC (Minimal Active Concentration)” value in assay [1] is 0.123 µg/mL. The “IC50, HT29” value in assay [2] was 0.033 µg/mL (≈ 0.0749 µM). For the same compound, the “IC50, A549” value in assay [3] worked out at 0.056 µg/mL (≈ 0.127 µM). Besides, in assay [4], the “IC50, PANC-1” value was found to be 0.028 µg/mL (≈ 0.0636 µM). For the same compound, in assay [5], the “IC50, Ma44” value was 0.049 µg/mL (≈ 0.111 µM). Also, in assay [6], the “IC50, RERF-LC-AI” value came out at 0.016 µg/mL (≈ 0.0363 µM).

On to `CCCNC(=Nc1nc(C)ncc1CSc1nnc(-c2ccc(N)cc2)o1)NCC` [Compound A-167], for which the “MAC (Minimal Active Concentration)” value in assay [1] is 0.0137 µg/mL. For the same compound, in assay [2], the “IC50, HT29” value is 0.0061 µg/mL (≈ 0.0143 µM). In addition, the “IC50, A549” value in assay [3] was determined as 0.012 µg/mL (≈ 0.0281 µM). Further, in assay [4], the “IC50, PANC-1” value is 0.006 µg/mL (≈ 0.0141 µM). Also, in assay [5], the “IC50, Ma44” value stood at 0.025 µg/mL (≈ 0.0586 µM). For the same compound, the “IC50, RERF-LC-AI” value in assay [6] was found to be 0.0032 µg/mL (≈ 0.0075 µM).

For `CCCCNC(=Nc1nc(C)ncc1CSc1nnc(-c2ccc(N)cc2)o1)NCCCC` [Compound A-169], the “MAC (Minimal Active Concentration)” value in assay [1] amounted to 0.0412 µg/mL. Also, the “IC50, HT29” value in assay [2] came out at 0.027 µg/mL (≈ 0.0576 µM). For the same compound, the “IC50, A549” value in assay [3] is 0.041 µg/mL (≈ 0.0875 µM). The “IC50, PANC-1” value in assay [4] is 0.025 µg/mL (≈ 0.0533 µM). Further, the “IC50, Ma44” value in assay [5] is 0.05 µg/mL (≈ 0.107 µM). Besides, the “IC50, RERF-LC-AI” value in assay [6] was 0.021 µg/mL (≈ 0.0448 µM).

As for `CNC(=Nc1nc(C)ncc1CSc1nnc(-c2ccc(N)cc2)o1)NC(C)C` [Compound A-171], in assay [1], the “MAC (Minimal Active Concentration)” value was 0.0137 µg/mL. Besides, in assay [2], the “IC50, HT29” value turned out to be 0.0064 µg/mL (≈ 0.0155 µM). Besides, the “IC50, A549” value in assay [3] was 0.012 µg/mL (≈ 0.0291 µM). The “IC50, PANC-1” value in assay [4] was 0.006 µg/mL (≈ 0.0145 µM). The “IC50, Ma44” value in assay [5] was 0.013 µg/mL (≈ 0.0315 µM). In assay [6], the “IC50, RERF-LC-AI” value turned out to be 0.004 µg/mL (≈ 0.0097 µM).

For the origin of these results see patent US6420367B1, “Pyrimidine derivatives exhibiting antitumor activity” (Shionogo & Co., Ltd., priority 1998, dated 2002).
